# Measurements from ChEMBL document CHEMBL1641485, “Chromone 3-phenylcarboxamides as potent and selective MAO-B inhibitors” (Bioorg Med Chem Lett, 2011).
# Legend:
# [1] = target: T1, Amine oxidase [flavin-containing] B (Homo sapiens, UniProt P27338); test: Inhibition of human recombinant MAOB expressed in baculovirus-infected BTI insect cells at 100 uM after 15 mins by fluorimetric assay; settings: 0.25 h
# T1 sequence (P27338 whole entry): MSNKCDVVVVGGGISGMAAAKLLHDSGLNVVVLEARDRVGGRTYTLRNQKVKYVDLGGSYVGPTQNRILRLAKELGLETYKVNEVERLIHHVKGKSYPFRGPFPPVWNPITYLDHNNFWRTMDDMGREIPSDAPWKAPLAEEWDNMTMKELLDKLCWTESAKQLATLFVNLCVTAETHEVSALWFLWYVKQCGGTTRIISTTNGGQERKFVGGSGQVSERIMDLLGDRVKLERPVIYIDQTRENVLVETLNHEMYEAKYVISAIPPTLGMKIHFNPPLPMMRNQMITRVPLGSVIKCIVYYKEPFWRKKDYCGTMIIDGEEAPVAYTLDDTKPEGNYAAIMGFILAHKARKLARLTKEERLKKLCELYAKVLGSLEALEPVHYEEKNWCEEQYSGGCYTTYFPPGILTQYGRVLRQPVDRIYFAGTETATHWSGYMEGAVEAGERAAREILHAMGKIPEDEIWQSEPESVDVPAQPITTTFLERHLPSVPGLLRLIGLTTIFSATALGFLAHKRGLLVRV
# [2] = target: T2, Amine oxidase [flavin-containing] A (Homo sapiens, UniProt P21397); test: Inhibition of human recombinant MAOA expressed in baculovirus-infected BTI insect cells at 100 uM after 15 mins by fluorimetric assay; settings: 0.25 h
# T2 sequence (P21397 whole entry): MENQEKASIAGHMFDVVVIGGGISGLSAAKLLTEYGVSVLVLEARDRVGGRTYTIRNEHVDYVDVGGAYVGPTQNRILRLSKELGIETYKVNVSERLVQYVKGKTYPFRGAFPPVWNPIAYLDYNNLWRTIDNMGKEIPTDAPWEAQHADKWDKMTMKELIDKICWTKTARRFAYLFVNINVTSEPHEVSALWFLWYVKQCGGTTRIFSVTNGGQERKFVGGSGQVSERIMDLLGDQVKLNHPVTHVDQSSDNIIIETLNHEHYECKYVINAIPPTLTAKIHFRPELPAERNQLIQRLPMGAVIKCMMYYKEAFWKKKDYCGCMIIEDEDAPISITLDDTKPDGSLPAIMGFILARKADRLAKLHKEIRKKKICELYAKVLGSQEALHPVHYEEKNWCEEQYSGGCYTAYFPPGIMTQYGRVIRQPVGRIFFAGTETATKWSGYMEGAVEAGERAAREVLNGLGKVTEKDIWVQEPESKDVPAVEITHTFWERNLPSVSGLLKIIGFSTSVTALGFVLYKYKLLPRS
# [3] = target: T1, Amine oxidase [flavin-containing] B; test: Inhibition of human recombinant MAOB expressed in baculovirus-infected BTI insect cells after 15 mins by fluorimetric assay; format: cell-based
# Homo sapiens = organism: Homo sapiens; test: Selectivity ratio of IC50 for human recombinant MAOA to IC50 for human recombinant MAOB
Structure (SMILES),inhibition (INH) [1],inhibition (INH) [2],IC50 [3],Ratio IC50 (Homo sapiens)
CSc1ccc(NC(=O)c2cc(=O)c3ccccc3o2)cc1,Not Active,Not Active,–,–
CSc1ccc(NC(=O)c2coc3ccccc3c2=O)cc1,–,Not Active,0.12 µM,> 833
COc1ccc(NC(=O)c2cc(=O)c3ccccc3o2)cc1,Not Active,Not Active,–,–
O=C(Nc1ccc(I)cc1)c1cc(=O)c2ccccc2o1,Not Active,Not Active,–,–

# Further lines, results first:
inhibition (INH) [1],inhibition (INH) [2],IC50 [3],Ratio IC50 (Homo sapiens),Structure (SMILES)
–,Not Active,0.45 µM,> 222,COc1ccc(NC(=O)c2coc3ccccc3c2=O)cc1
Not Active,Not Active,–,–,Cc1ccc(NC(=O)c2cc(=O)c3ccccc3o2)cc1
Not Active,Not Active,–,–,O=C(Nc1ccccc1)c1cc(=O)c2ccccc2o1
